Values joined by “and” are separate entries in the source; they are usually repeats but may differ in a detail not shown here. Equal entries are not always repeated.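 In this assay, cells in 96-well plates receive the compound at five concentrations for 48 hours. Endpoints are linearly interpolated between the surrounding concentrations. GI50 is the concentration that inhibits growth by half. TGI: concentration producing complete growth inhibition.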
Columns and labels:
Experiment in all cases: NCI-60 cell line screen, 48 h
OVCAR-3 ovarian = test system: OVCAR-3 ovarian
MDA-MB-231 breast = test system: MDA-MB-231 breast
HOP-92 NSCLC = test system: HOP-92 NSCLC
MDA-N = test system: MDA-N
IGROV1 ovarian = test system: IGROV1 ovarian
CAKI-1 renal = test system: CAKI-1 renal
NCI-H522 lung = test system: NCI-H522 lung
RPMI-8226 leukemia = test system: RPMI-8226 leukemia
OVCAR-4 ovarian = test system: OVCAR-4 ovarian

Compound | TGI (OVCAR-3 ovarian) | TGI (MDA-MB-231 breast) | TGI (HOP-92 NSCLC) | TGI (MDA-N) | TGI (IGROV1 ovarian) | TGI (CAKI-1 renal) | TGI (NCI-H522 lung) | TGI (RPMI-8226 leukemia) | TGI (OVCAR-4 ovarian) | GI50 (HOP-92 NSCLC)
COc1ccc2oc(=O)c(-c3cc4c(c(C)n3)c(=O)oc3ccc(OC)cc34)cc2c1 | > 100 µM | > 100 µM | > 100 µM | > 100 µM | > 100 µM | > 100 µM | > 100 µM | > 100 µM |  | 
CC(C)OC(=O)C(NC(=O)C(CC(=O)OCc1ccccc1)NC(=O)OCc1ccccc1)NC(=O)C1C(C)(C)CCC1(C)C (configuration not stated) | 8.01 µM | 7.82 µM | 24.1 µM | 24.2 µM | 64.2 µM | 21.9 µM | 24.1 µM | 24.2 µM | 14.2 µM | 
CN(C)c1cccc2c(S(=O)(=O)NCCN)cccc12 | > 100 µM | > 100 µM | > 100 µM | > 100 µM | 91.9 µM | > 100 µM | > 100 µM |  | > 100 µM | 
O=C(Nc1cccc2ccccc12)c1cc2ccccc2oc1=O | > 100 µM | 58.1 µM | > 100 µM | > 100 µM | > 100 µM | > 100 µM |  | > 100 µM | > 100 µM | 
COc1cc(C=O)cc(C=Nc2ccc(Br)cc2)c1O | > 100 µM | 37.8 µM | 39.6 µM | 35.7 µM | > 100 µM | 42 µM | 23.5 µM | 21.8 µM | > 100 µM | 
COC(=O)C(Cc1ccccc1)NC(=O)C(CNC(=O)OCc1ccccc1)C(=O)OCc1ccccc1 (configuration not stated) | > 100 µM | > 100 µM and 64.6 µM | > 100 µM | > 100 µM | > 100 µM | > 100 µM | > 100 µM | > 100 µM |  | > 100 µM and 31.9 µM
CCc1c(O)nc(Nc2nc3ccccc3[nH]2)[nH]c1=O | > 100 µM | > 100 µM | > 100 µM | > 100 µM | > 100 µM |  | > 100 µM |  | > 100 µM | 
CC1(C)CCC[C@@]2(C)C1CC[C@@]1(CO)O[C@H](C3=CC(=O)OC3O)C[C@H]12 (some centres not stated) | 29.4 µM | 36.1 µM | 38.2 µM | 25.8 µM | 42.5 µM | 28.6 µM | 17.4 µM | > 36.1 µM | 35.2 µM | 
O=C(/C=C/c1ccccc1)c1cc(CN2CCOCC2)c(O)c(CN2CCOCC2)c1 | 29.4 µM | 32.7 µM | 26.9 µM | 39 µM | > 100 µM | 4.36 µM | > 100 µM | 21.4 µM |  | 
CC(=O)CCC1(C(=O)OCC(C)C)CCCC1=O (configuration not stated) | > 100 µM | > 100 µM | > 100 µM | > 100 µM | > 100 µM | > 100 µM | > 100 µM |  | > 100 µM | 
CC(C)(C)C(=O)c1c(O)c2ccccc2c2ccccc2c1=O | > 100 µM | > 100 µM | > 100 µM | > 100 µM |  | > 100 µM | > 100 µM |  | > 100 µM | 
C[n+]1c2ccccc2n2c3ccccc3c(NCCCn3ccnc3)c(C#N)c21 | > 25.2 µM | 9.18 µM | > 20.2 µM | 9.82 µM |  | > 43.1 µM | 2.18 µM |  | 7.42 µM | 
CC(C)CNP(=O)(NCC(C)C)Oc1ccc(CC(NC(=O)OCc2ccccc2)C(=O)OCc2ccccc2)cc1 (configuration not stated) | 16 µM | 34.9 µM | > 100 µM | 36 µM | > 100 µM | > 100 µM | 30.5 µM | 40 µM | 36.5 µM | 
Cc1n[nH]c(=O)n1-n1cccc1 | > 100 µM | > 100 µM | > 100 µM | > 100 µM | > 100 µM | > 100 µM | > 100 µM | > 100 µM | > 100 µM | 
O=c1[nH]nc(Nc2ccc(Cl)cc2)c2nnn(C3CCCCC3)c12 | > 100 µM | 45.2 µM | 66 µM | > 100 µM | > 100 µM | 51.8 µM | 81.7 µM | > 100 µM | 43.1 µM | 
COc1cc2c(cc1O)C(Cc1ccc(OCc3ccccc3)c(OCc3ccccc3)c1)N(C(=O)NCCc1ccccc1)CC2 (configuration not stated) | > 100 µM | > 100 µM | > 100 µM | > 100 µM | > 100 µM | > 100 µM | 72.9 µM | > 100 µM | > 100 µM | 
COC(=O)CCC(C)[C@H]1CCC2C3CC[C@@H]4CC5(CC[C@]4(C)C3C[C@H](OC(C)=O)[C@@]21C)OOC1(CCCCC1)OO5 (some centres not stated) | > 100 µM | > 100 µM | > 100 µM | 35 µM | 5.48 µM | 37 µM | 40.5 µM | 10.8 µM | > 100 µM | 
Cc1ccc(C(=O)Nc2ccc(CP(=O)(O)O)cc2CP(=O)(O)O)cc1N | > 100 µM | > 100 µM | > 100 µM | > 100 µM | > 100 µM | > 100 µM | > 100 µM | > 100 µM | > 100 µM | 
Cc1nnc(SCc2nc(C#N)c(C#N)nc2CSc2nnc(C)s2)s1 | 20.7 µM | 31.4 µM | 26.8 µM | 49.9 µM | 33.5 µM | 11.6 µM | 9.22 µM | 18 µM | 31.5 µM | 
CC(C)(NO)/C(=N\O)c1ccccc1 | > 10 µM | > 10 µM | > 10 µM | > 10 µM |  | > 10 µM | > 10 µM | > 10 µM | > 10 µM | 
NC(=O)CSc1nc2ccccc2c(=O)n1N | > 100 µM | > 100 µM | > 100 µM | > 100 µM | > 100 µM | > 100 µM | > 100 µM | > 100 µM | > 100 µM | 
O=C(O)[C@H]1NC[C@H]2C(Br)=NO[C@@H]12 | > 100 µM | > 100 µM | > 100 µM | > 100 µM | > 100 µM | > 100 µM | > 100 µM | > 100 µM | > 100 µM | 
O=S(Nc1ccccc1)c1ccc(Cl)cc1 (configuration not stated) | > 100 µM | > 100 µM |  | > 100 µM | > 100 µM | > 100 µM | > 100 µM | > 100 µM | > 100 µM | 
CC1(C)N=C(/C(Cl)=[N+](/[O-])C(=O)c2ccc(Cl)cc2)C(C)(C)N1O | 32.4 µM | 40 µM | 31.4 µM | 32.4 µM | > 100 µM | 42.7 µM |  | 72.6 µM | 68.5 µM | 

Reference: PubChem BioAssay (NCI)
